Reference: ChEMBL document CHEMBL1201862, “PubChem BioAssay data set” (2004)
The source made the active and inactive calls.

Columns and labels:
[1] = target: T1, COUP transcription factor 2 (Homo sapiens, UniProt P24468); assay: Luminescence-based cell-based high throughput dose response assay to identify inhibitors of COUP-TFII (NR2F2).; assay type: functional;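 further: HEK293 cells transiently cotransfected with COUP-TFII expression vector and reporter; luciferase reporter luminescence driven by COUP-TFII from the pX2-168 reporter plasmid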
T1 sequence (P24468 whole entry): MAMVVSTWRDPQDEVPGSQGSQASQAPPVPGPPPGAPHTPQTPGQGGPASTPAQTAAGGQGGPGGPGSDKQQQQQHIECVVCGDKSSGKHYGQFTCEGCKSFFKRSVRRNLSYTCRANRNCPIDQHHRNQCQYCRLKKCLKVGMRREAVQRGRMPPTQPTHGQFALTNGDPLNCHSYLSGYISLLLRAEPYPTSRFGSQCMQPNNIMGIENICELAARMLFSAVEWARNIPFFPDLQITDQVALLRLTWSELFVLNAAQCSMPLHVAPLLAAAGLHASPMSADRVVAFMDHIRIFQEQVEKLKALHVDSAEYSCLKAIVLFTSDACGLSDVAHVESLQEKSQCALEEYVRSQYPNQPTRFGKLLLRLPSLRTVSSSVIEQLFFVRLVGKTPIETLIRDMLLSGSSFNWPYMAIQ

Galanin receptor type 3 = target: T2, Galanin receptor type 3 (Homo sapiens, UniProt O60755); assay: Fluorescence-based cell-based primary high throughput dose response assay to identify antagonists of the Galanin Receptor 3 (GalR3).; assay type: functional
T2 sequence (O60755 whole entry): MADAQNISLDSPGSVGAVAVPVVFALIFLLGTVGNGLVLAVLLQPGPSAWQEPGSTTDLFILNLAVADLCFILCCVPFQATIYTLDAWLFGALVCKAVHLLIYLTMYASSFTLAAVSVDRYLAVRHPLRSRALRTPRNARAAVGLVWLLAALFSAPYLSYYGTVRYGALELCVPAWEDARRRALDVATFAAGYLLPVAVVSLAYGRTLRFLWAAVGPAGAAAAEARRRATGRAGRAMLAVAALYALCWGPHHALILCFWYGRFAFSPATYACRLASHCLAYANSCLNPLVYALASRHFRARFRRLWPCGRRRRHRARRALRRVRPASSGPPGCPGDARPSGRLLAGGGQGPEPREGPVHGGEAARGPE

[2] = reduction of Shn3 3'UTR-driven luciferase in osteoblasts – cell-based, Clone20 osteoblasts, firefly luciferase, cherry-picked, dose response (AID 624132); assay type: functional;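 further: firefly luciferase luminescence from reporter carrying the Shn3 3'UTR in osteoblasts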
[3] = blockers of HIV-1 ZM109 envelope-driven cell-cell fusion – HeLa effector, CEM target cells, luciferase, cherry-pick, dose response (AID 652058); assay type: functional, cell-based;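 further: luciferase signal from HIV-1 Env mediated cell-cell fusion of effector and target cells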
[4] = HIV-1 AD8 envelope cell-cell fusion blockers – cherry-pick, dose response (AID 652062); assay type: functional, cell-based;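 further: luciferase signal from cell-cell fusion driven by HIV-1 clade B AD8 Env; potency is for inhibitors of fusion seen as a drop in luminescence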
[5] = viability loss in CEM21 cells – cell-based, CellTiter-Glo luminescence, cherry-picked, cytotoxicity control for viral fusion inhibitor project, dose response (AID 652042); assay type: functional;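 further: potency for signal decrease meaning cytotoxicity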
HEK293 = assay: EBV LMP1 TES2 canonical NF-kB signalling blockers – cell-based, HEK293, luciferase, cherry-pick, dose response (AID 588343); assay type: functional; details: Homo sapiens
[6] = HPDE-C7 pancreatic duct cell viability loss – fluorescence, HTS (AID 430); assay type: functional, cell-based; details: Homo sapiens
[7] = blockers of HIV-1 envelope-mediated cell-cell fusion – cherry-pick, dose response (AID 652057); assay type: functional, cell-based
[8] = loss of viability in HepG2 cells – cell-based, CellTiter-Glo, cherry-picked, cytotoxicity control for Shn3 inhibitor project, dose response (AID 624134); assay type: functional
[9] = viability loss of HPDE-C7K cells – cell-based, fluorescence, HTS, primary screen (AID 431); assay type: functional; details: Homo sapiens
[10] = microbe, parasite or virus in culture; assay type: functional; details: Mycobacterium tuberculosis
[11] = non-specific 3'UTR reporter inhibition in Clone20-Shn3RL – cell-based, Renilla luciferase, cherry-picked, counter-screen for Shn3 inhibitor project, dose response (AID 624133); assay type: functional
cells = assay type: functional
Cytochrome P450 3A4 = Cytochrome P450 3A4 (Homo sapiens, UniProt P08684); details: Potency;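 further: confirmatory qHTS run detecting inhibitors and substrates of CYP3A4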
[12] = target: Eukaryotic translation initiation factor 4E (Mus musculus, UniProt P63073); assay: blockers of eIF4G binding by eIF4E – biochemical, TR-FRET, dose response (AID 855); assay type: functional;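 further: potency for disrupting eIF4E binding to eIF4GI seen as loss of FRET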
[13] = target: Induced myeloid leukemia cell differentiation protein Mcl-1 (Homo sapiens, UniProt Q07820); assay type: functional
Leucine aminopeptidase = target: T3, Leucine aminopeptidase (Plasmodium falciparum 3D7, UniProt Q8IL11); assay: P. falciparum M17LAP inhibitors, primary screen, biochemical, fluorogenic H-Leu-NHMec substrate, 1536-well (AID 1619); assay type: functional
T3 sequence (Q8IL11 whole entry): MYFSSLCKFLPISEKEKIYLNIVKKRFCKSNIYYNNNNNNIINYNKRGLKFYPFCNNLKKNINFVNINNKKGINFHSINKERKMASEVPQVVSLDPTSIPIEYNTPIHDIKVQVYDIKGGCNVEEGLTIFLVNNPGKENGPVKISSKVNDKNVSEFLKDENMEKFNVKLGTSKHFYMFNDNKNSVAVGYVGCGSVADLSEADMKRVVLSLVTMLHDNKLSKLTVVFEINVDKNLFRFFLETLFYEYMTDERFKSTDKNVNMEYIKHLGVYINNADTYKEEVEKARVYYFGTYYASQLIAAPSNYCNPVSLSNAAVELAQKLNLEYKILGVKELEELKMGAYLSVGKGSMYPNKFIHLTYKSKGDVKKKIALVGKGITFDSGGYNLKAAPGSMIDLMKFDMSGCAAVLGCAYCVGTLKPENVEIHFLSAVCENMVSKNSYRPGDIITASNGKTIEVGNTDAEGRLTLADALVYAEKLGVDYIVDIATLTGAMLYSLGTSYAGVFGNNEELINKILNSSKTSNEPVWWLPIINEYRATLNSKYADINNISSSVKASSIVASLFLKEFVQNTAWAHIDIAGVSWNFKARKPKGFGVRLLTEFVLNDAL

Caspase-6 = target: T4, Caspase-6 (Homo sapiens, UniProt P55212); assay: inhibition of CASP6 peptide cleavage – biochemical, VEID-R110 fluorescence, cherry-pick, dose response (AID 720632)
T4 sequence (P55212 whole entry): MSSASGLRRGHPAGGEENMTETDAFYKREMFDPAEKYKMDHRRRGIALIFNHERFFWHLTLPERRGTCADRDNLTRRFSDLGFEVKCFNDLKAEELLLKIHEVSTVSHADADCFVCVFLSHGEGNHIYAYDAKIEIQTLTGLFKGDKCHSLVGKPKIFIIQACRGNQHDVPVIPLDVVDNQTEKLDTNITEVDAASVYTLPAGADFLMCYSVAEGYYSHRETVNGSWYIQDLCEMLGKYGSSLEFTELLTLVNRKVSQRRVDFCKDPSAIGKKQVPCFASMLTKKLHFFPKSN

[14] = viability of PTEN-deleted HCT116 cells – cell-based, HCT116 PTEN knockout, dose response (AID 1047); assay type: functional;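 further: HCT116 colon tumor cells with PTEN knocked out; cells exposed to compound for 60 hours before readout; potency for loss of cell viability measured by luminescence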
[15] = viability of HCT116 lacking mutant beta-catenin – cell-based, human colon tumor, dose response (AID 1045); assay type: functional;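 further: HCT116 colon tumor cells with beta catenin knocked out; cells exposed to compound for 60 hours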

Chain of Cytochrome P450 3A4 (P08684 whole entry): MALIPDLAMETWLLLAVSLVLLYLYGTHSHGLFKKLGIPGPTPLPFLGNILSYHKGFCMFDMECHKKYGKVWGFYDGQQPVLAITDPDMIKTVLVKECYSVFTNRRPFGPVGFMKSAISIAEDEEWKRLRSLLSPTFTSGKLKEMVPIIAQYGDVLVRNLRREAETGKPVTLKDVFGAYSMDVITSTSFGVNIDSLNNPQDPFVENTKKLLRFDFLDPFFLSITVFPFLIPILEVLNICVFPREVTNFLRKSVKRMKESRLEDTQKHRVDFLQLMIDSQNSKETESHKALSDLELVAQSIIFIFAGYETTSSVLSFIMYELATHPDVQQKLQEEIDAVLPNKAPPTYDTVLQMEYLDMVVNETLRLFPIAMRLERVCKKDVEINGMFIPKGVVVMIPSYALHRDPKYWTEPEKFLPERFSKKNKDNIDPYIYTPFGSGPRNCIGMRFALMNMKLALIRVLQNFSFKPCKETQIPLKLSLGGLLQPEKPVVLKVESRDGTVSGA
Chain of Induced myeloid leukemia cell differentiation protein Mcl-1 (Q07820 whole entry): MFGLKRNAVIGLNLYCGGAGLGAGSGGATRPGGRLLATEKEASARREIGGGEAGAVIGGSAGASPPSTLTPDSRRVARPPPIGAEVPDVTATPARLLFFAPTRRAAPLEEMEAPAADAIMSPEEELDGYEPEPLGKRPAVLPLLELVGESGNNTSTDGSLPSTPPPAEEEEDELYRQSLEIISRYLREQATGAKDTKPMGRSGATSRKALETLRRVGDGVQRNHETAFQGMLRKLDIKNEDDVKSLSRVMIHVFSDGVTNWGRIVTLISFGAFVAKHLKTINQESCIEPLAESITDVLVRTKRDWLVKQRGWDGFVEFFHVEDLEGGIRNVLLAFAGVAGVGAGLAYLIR
Chain of Eukaryotic translation initiation factor 4E (P63073 whole entry): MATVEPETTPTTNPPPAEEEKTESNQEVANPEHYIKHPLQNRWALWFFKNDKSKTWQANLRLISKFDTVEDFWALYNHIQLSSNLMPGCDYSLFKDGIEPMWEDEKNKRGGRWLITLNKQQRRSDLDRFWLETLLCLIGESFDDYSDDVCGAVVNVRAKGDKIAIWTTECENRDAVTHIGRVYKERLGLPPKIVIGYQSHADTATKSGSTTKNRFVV

c1ccc(CNc2ncnc3ccccc23)cc1
IC50 [1]: 10.3 µM (inactive)
IC50 (Galanin receptor type 3): 2.42 µM (active)

Cc1ccc2[nH]c3c(N4CCN(Cc5ccccc5)CC4)ncnc3c2c1
AC50 [2]: 4.18 µM (active)
AC50 [3]: 0.671 µM (active)
AC50 [4]: 19.5 µM (active)
AC50 [5]: 26.2 µM (active)
AC50 (HEK293): 11.8 µM (active)
EC50 [6]: 14.1 µM (active)
AC50 [7]: 8.98 µM (active)
AC50 [8]: 30.8 µM (active)
EC50 [9]: 16.8 µM (active)
CC50 [10]: 35.2 µM (active)
AC50 [11]: 20.3 µM (active)

Cc1cccc(OC(=O)c2ccc3nccnc3c2)c1
IC50 (cells): 9.63 µM (active)

CCN1CCCC1Cn1c(-c2ccccc2)nc2c(N3CCOCC3)nc(C)nc21 (configuration not stated)
AC50 (Cytochrome P450 3A4): 12.6 µM (inconclusive)

CCOC(=O)COc1ccc(C(=O)c2ccccc2)c(O)c1
IC50 (cells): 3.02 µM (active)

CC(=O)Oc1ccc2c(c1)CCC1C2CC[C@]2(C)C(OC(C)=O)CCC12 (some centres not stated)
AC50 (Cytochrome P450 3A4): 31.6 µM (inconclusive)

COC(=O)[C@@H]1C[C@@]2(O)[C@H](O)[C@H](O)[C@H](O)C[C@H]2N1Cc1ccc(C(F)(F)F)cc1
AC50 (Cytochrome P450 3A4): 20 µM (inconclusive)

CCOC(=O)/C(C#N)=C/c1ccc(OC(=O)c2ccccn2)cc1
IC50 [12]: > 64 µM (inactive)

NC(=O)c1c(Nc2nc3c(F)cccc3s2)sc2c1CCCC2
IC50 [13]: 2.76 µM (active)
IC50 (Leucine aminopeptidase): 81.8 µM (active)

COc1cc(C(=O)OCC(=O)N2CCCC2=O)cc(OC)c1C
AC50 (Caspase-6): 18.5 µM (active)

O=C(CC(Nc1cccc(Cl)c1Cl)C(=O)O)c1ccccc1 (configuration not stated)
IC50 (Leucine aminopeptidase): 14.2 µM (active)

O=C(Oc1ccccc1)c1cccc2cccnc12
EC50 [14]: 11.3 µM (active)
EC50 [6]: 5.75 µM (active)
EC50 [9]: > 20 µM (not active)
EC50 [15]: 11.5 µM (active)
